# In article PMC9228535, “Antistaphylococcal Activities and ADME-Related Properties of Chlorinated Arylcarbamoylnaphthalenylcarbamates” (Pharmaceuticals, 2022):
# Read-outs that look alike come from different tables or passages of the source.
# Tests used:
# MRSA 63718 [1] = assay: MIC, microtitration broth method; format: cell-based; details: Staphylococcus aureus
# Description: (§1) All the investigated compounds were screened for in vitro antibacterial activity against the reference and quality control strain Staphylococcus aureus ATCC 29213 and clinical isolates of methicillin-resistant S. aureus (MRSA) 63718, SA 630, and SA 3202 [14]. Activities are expressed as the minimum inhibitory concentrations (MICs), see Table 2. In addition to the MICs, the minimum bactericidal concentrations (MBCs) were also determined.
# (§2) In vitro antibacterial activity of the synthesized compounds was evaluated against representatives of multidrug-resistant bacteria, three clinical isolates of methicillin-resistant S. aureus: clinical isolate of animal origin, MRSA 63718 (Department of Infectious Diseases and Microbiology, Faculty of Veterinary Medicine, University of Veterinary Sciences Brno, Czech Republic), carrying the mecA gene; and MRSA SA 630 [46] and MRSA SA 3202 [46] (National Institute of Public Health, Prague, Czech Republic), both of human origin. Suspected colonies were confirmed by PCR; a 108bp fragment specific for S. aureus was detected. All isolates were tested for the presence of the mecA gene encoding methicillin resistance. […] Vancomycin-susceptible methicillin-susceptible S. aureus (VS-MSSA) ATCC 29213, obtained from the American Type Culture Collection, was used as the reference and quality control strain. Enterococcus faecalis ATCC 29212 was obtained from the American Type Culture Collection and used as the reference and quality control strain.
# (§3) The minimum inhibitory concentrations (MICs) were evaluated by the microtitration broth method according to the CLSI [64, 65] with some modifications. The compounds were dissolved in DMSO (Sigma, St. Louis, MO, USA) to get a concentration […] and diluted in a microtitration plate in an appropriate medium, namely, Cation Adjusted Mueller–Hinton (CaMH, Oxoid, Basingstoke, UK) for staphylococci (S. aureus ATCC 29213, clinical isolates of MRSA 63718, SA 630, and SA 3202) and brain heart infusion (BHI, Oxoid) for E. faecalis ATCC 29212, to reach the final concentration of 256-0.125 µg/mL. The plate was inoculated by the tested microorganisms. The final concentration of bacterial cells was 10^5 for bacteria. Ampicillin (Sigma) was used as reference drugs. A drug-free control and a sterility control were included. The plates were incubated for 24 h at 37 °C for staphylococci and E. faecalis ATCC 29212 (stability evaluation of the carbamates, see Supplementary materials, Table S1). […] The experiments were repeated three times.
# MRSA SA 3202 [2] = assay: MIC, microtitration broth method; format: cell-based; details: Staphylococcus aureus
# Description: as §1, §2, §3
# MRSA SA 630 [3] = assay: MIC, microtitration broth method; format: cell-based; details: Staphylococcus aureus
# Description: as §1, §2, §3
# [4] = system: Staphylococcus aureus ATCC 29213; assay: MIC, microtitration broth method; format: cell-based; details: ATCC29213, SA = S. aureus ATCC 29213, 24 h, read-out: MIC
# Description: as §1, §2, §3
# MRSA 63718 [5] = assay: MBC, agar aliquot subculture method; format: cell-based; details: Staphylococcus aureus
# Description: as §1
# (§4) For the S. aureus and MRSA isolates, the agar aliquot subculture method was used as a test for bactericidal agents. After the MIC value determination, the inoculum was transferred to Mueller–Hinton (Oxoid) agar using a multipoint inoculator. The plates were incubated in a thermostat at 37 °C for 24 h. The lowest concentration of test compound at which ≤5 colonies were obtained was then evaluated as MBC, corresponding to a 99.9% decrease in CFU relative to the original inoculum.
# MRSA SA 3202 [6] = assay: MBC, agar aliquot subculture method; format: cell-based; details: Staphylococcus aureus
# Description: as §1, §4
# MRSA SA 630 [7] = assay: MBC, agar aliquot subculture method; format: cell-based; details: Staphylococcus aureus
# Description: as §1, §4
# [8] = system: Staphylococcus aureus ATCC 29213; assay: MBC, agar aliquot subculture method; format: cell-based; details: ATCC29213, SA = S. aureus ATCC 29213, read-out: MBC
# Description: as §1, §4
# THP-1 cells = assay: In vitro cytotoxicity assay (WST-1); format: cell-based; details: Homo sapiens; THP-1, 24 h, ± SD, n = 6; read-out: IC50
# Description: Preliminary in vitro cytotoxicity screening of the investigated compounds was performed using human monocytic leukemia THP-1 cells, see Table 2. The ability to inhibit the human cancer cell viability (IC50) of the compounds was compared to camptothecin toxicity (0.16 ± 0.07 μM). […] However, these values are up to two orders of magnitude higher than their significant antistaphyloccocal concentrations. This fact is also taken into account in the calculated selectivity index (SI), Table 2, where for only three compounds the SI is <20, while for the rest of the agents SI is >20, and for some derivatives even 100 and more. Thus, based on all these observations, it can be concluded that all the tested derivatives can be considered as in vitro non-toxic compounds for the subsequent design of new therapeutic agents.
# The human THP-1 cell line (European Collection of Cell Cultures, Salisbury, UK) was cultured in RPMI 1640 medium supplemented with 10% fetal bovine serum, 2% L-glutamine, 1% penicillin, and streptomycin at 37 °C with 5% CO2. Cells were passaged at approximately 1-week intervals. All the tested compounds were prepared and dissolved as mentioned in our previous work.
# [9] = Lipophilicity determination by RP-HPLC (log k, log D); format: physicochemical; details: for log D6.5 / log D7.4 / log k: RP-HPLC; for log D6.5: MeOH 72%/acetate buffered saline pH 6.5; for log D7.4: MeOH 72%/acetate buffered saline pH 7.4; for log k: MeOH 72%/water 28%
# Description: Lipophilicity was measured by reversed-phase high performance liquid chromatography (RP-HPLC) under isocratic conditions with methanol as the organic modifier in the aqueous mobile phase and the logarithm of the capacity factor k was calculated, which is used as the lipophilicity index converted to the log P scale. In addition to the log k values, the logarithm of the distribution coefficient DpH at pH 6.5 and 7.4 was determined to clarify the behavior of the compounds under physiological conditions and possible ionization. Instead of water, a buffer of suitable pH was used as part of the mobile phase. In addition to the above-mentioned experimental methods, commercially available ChemBioDraw Ultra 13.0 and ACD/Percepta ver. […] In addition to lipophilicity, other parameters discussed in Ro5, such as molecular weight, number of H-bond donors/acceptors, as well as parameters not reported in Ro5, but characterizing the physicochemical properties of the prepared molecules, such as number of rotatable bonds, were predicted using ACD/Percepta. Moreover, for each R substituent, bulkiness expressed as molar volume (MV [cm^3]), a parameter describing the tail length/branching of each carbamates, was calculated.
# A HPLC separation module Agilent 1200 Series (Agilent Technologies, Santa Clara, CA, USA) equipped with a Dual Absorbance Detector (DAD SL G1315C, Agilent Technologies) was used. A chromatographic column Symmetry® C18 5 μm, 4.6 × 250 mm, Part No. W21751W016 (Waters Corp, Milford, MA, USA) was used. The HPLC separation process was monitored by ChemStation for LC 3D systems (Agilent Technologies). […] The total flow of the column was 1.0 mL/min, injection 20 μL, column temperature 40 °C, and sample temperature 10 °C. The detection wavelength of 210 nm was chosen. A KI methanolic solution was used for the determination of the dead times (tD). Retention times (tR) were measured in minutes. The capacity factors k were calculated according to the formula k = (tR − tD)/tD, where tR is the retention time of the solute, and tD is the dead time obtained using an unretained analyte. The distribution coefficients DpH were calculated according to the formula DpH = (tR − tD)/tD. Each experiment was repeated three times.
# [10] = system: Enterococcus faecalis ATCC 29212; assay: MIC, microtitration broth method; format: cell-based; details: for MIC: ATCC29212, EF = Enterococcus faecalis, 24 h, read-out: MIC
# Description: as §2, §3
Structure (SMILES),MIC [4] [µM],MBC [8] [µM],IC50 (THP-1 cells) [µM],log D6.5 [9],log D7.4 [9],log k [9],"MIC (MRSA 63718 [1]; MRSA, 24 h) [µM]",MIC (MRSA SA 3202 [2]; 24 h) [µM],MIC (MRSA SA 630 [3]; 24 h) [µM],MBC (MRSA 63718 [5]; MRSA) [µM],MBC (MRSA SA 3202 [6]) [µM],MBC (MRSA SA 630 [7]) [µM],MIC [10] [µM],also measured
"CC1(C)S[C@@H]2[C@H](NC(=O)[C@H](N)c3ccccc3)C(=O)N2[C@H]1C(=O)O [APM, ampicillin, reference compound]",5.72,> 5.72,–,–,–,–,–,–,–,–,–,–,–,"MIC (MRSA 63718 [1]; MRSA1 = MRSA 63718, 24 h, read-out: MIC): 45.8 µM; MIC (MRSA SA 3202 [2]; MRSA3 = SA 3202, 24 h, read-out: MIC): 45.8 µM; MIC (MRSA SA 630 [3]; MRSA2 = SA 630, 24 h, read-out: MIC): 45.8 µM; MBC (MRSA 63718 [5]; MRSA1 = MRSA 63718, read-out: MBC): > 45.8 µM; MBC (MRSA SA 3202 [6]; MRSA3 = SA 3202, read-out: MBC): > 45.8 µM; MBC (MRSA SA 630 [7]; MRSA2 = SA 630, read-out: MBC): > 45.8 µM"
"CC[C@@]1(O)C(=O)OCc2c1cc1n(c2=O)Cc2cc3ccccc3nc2-1 [CMT, camptothecin, reference compound]",–,–,0.16 ± 0.07,–,–,–,–,–,–,–,–,–,–,–
"CCCNC(=O)Oc1c(C(=O)Nc2cc(Cl)c(Cl)cc2Cl)ccc2ccccc12 [Compound 3, 2-[N-(2,4,5-Trichlorophenyl)carbamoyl]naphthalen-1-yl propyl carbamate]",0.035,0.035,3.12 ± 0.07,0.9734,0.9793,0.9689,0.139,0.071,0.553,0.277,0.071,0.553,283,–
"CCCCCNC(=O)Oc1c(C(=O)Nc2cc(Cl)c(Cl)cc2Cl)ccc2ccccc12 [Compound 5, 2-[N-(2,4,5-Trichlorophenyl)carbamoyl]naphthalen-1-yl pentyl carbamate]",0.067,0.067,3.44 ± 0.04,1.3072,1.3168,1.3051,0.261,0.131,0.261,0.261,0.131,0.521,267,–
"CCCCCCNC(=O)Oc1c(C(=O)Nc2cc(Cl)c(Cl)cc2Cl)ccc2ccccc12 [Compound 6, 2-[N-(2,4,5-Trichlorophenyl)carbamoyl]naphthalen-1-yl hexyl carbamate]",0.128,0.128,3.2 ± 0.19,1.4899,1.4990,1.4883,0.253,0.253,0.253,0.253,0.253,0.506,259,–
"CCCCCCCNC(=O)Oc1c(C(=O)Nc2cc(Cl)c(Cl)cc2Cl)ccc2ccccc12 [Compound 7, 2-[N-(2,4,5-Trichlorophenyl)carbamoyl]naphthalen-1-yl heptyl carbamate]",0.124,0.124,3.19 ± 0.44,1.6765,1.6863,–,0.246,0.246,0.246,0.246,0.246,0.492,63,anti-enterococcal activity (in words) ([10]; E. faecalis ATCC 29212): moderate activity
"CCCCCCCCNC(=O)Oc1c(C(=O)Nc2cc(Cl)c(Cl)cc2Cl)ccc2ccccc12 [Compound 8, 2-[N-(2,4,5-Trichlorophenyl)carbamoyl]naphthalen-1-yl octyl carbamate]",0.479,0.958,2.61 ± 0.32,1.8687,1.8785,1.8654,0.958,1.92,0.479,1.92,1.92,1.92,123,"lipophilicity (experimental log k/log D, approximate) [9]: ca. 1.87"
